From patent publication US20240287093A1, “HIGH ACTIVITY STING PROTEIN AGONIST” (ADLAI NORTYE BIOPHARMA CO., LTD., priority 2018, published 2024)

Columns and labels:
Format in all cases: cell-based
STING variants (WT) = biological target: T1, STING variants (WT) (Homo sapiens, UniProt Q86WV6); assay: SEAP reporter assay in HEK-Blue ISG KO-STING cells transfected with STING WT variant (Method 2, 1 ng vector); conditions: compound concentration 2.5 (mM as printed); 24 h; SEAP signal ratio to 0.5% DMSO
T1 construct: host or cells: HEK-Blue ISG KO-STING cells (Invivogen, hkb-kostg)
From the text: (§1) Example II: STING Variants (WT & HAQ) Activation by Compounds in HEK-Blue™ ISG KO-STING Cells (Method 2)
(§2) Activation of STING can be determined using a SEAP reporter assay in HEK-Blue™ ISG KO-STING cells (Invivogen, cat #hkb-kostg) transfected with plasmids expressing STING variants (WT & HAQ) (referred to WO2017/175147A1). STING variants (WT & HAQ) vector were constructed based on STING-232H vector (Origene, RC208418). GFP vector (VT2069) was bought from Youbio. The detailed protocol as follows: HEK-Blue™ ISG KO-STING cells were harvest and seeding into 96 well plate and the final cell number was 0.8×10^5 cells/well. Transfections were prepared using Lipofectamine 2000 (Invitrogen, Cat #11668-027) following the manufacturer's instructions (Lipo2000:DNA=1:10), 20 ul of transfection suspension containing 1 ng (WT variant) or 0.0625 ng (HAQ variant) STING vector was added to cell culture plate and incubated at 37° C., 5% CO2 for 24 h. After 24 hours incubation, compounds were added at proper concentration, the final DMSO concentration was 0.5%. After 24h incubation, the supernatant was collected to detect SEAP signal using Great EscAPe SEAP chemiluminescence KIT (Clontech, cat #631738) and cells were collected to detect cell viability using CellTiter-Glo Luminescent Cell Viability Assay(Promega, cat #G7573) following the manufacturer's instructions. The data were described by the ratio of the stimulating signal of compounds to 0.5% DMSO.

STING variants (HAQ) = biological target: T2, STING variants (HAQ) (Homo sapiens, UniProt Q86WV6, G230A/R293Q/R71H); assay: SEAP reporter assay in HEK-Blue ISG KO-STING cells transfected with STING HAQ variant (Method 2, 0.0625 ng vector); conditions: compound concentration 5 (mM as printed); 24 h; SEAP signal ratio to 0.5% DMSO
T2 construct: host or cells: HEK-Blue ISG KO-STING cells (Invivogen, hkb-kostg)
T2 sequence (Q86WV6 whole entry R71H/G230A/R293Q): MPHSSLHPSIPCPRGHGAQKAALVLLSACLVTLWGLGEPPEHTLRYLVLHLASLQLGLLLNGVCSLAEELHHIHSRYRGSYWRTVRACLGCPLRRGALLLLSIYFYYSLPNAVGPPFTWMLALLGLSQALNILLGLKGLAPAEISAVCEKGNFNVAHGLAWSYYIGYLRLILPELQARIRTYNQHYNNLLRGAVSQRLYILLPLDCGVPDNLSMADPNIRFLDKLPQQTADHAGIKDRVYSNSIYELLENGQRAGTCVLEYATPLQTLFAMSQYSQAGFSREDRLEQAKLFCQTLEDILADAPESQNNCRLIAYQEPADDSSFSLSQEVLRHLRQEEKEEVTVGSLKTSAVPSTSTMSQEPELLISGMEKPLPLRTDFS
From the text: as §1, §2

STING = biological target: T3, STING (Homo sapiens, UniProt Q86WV6, G230A/H232R/R293Q/R71H); assay: IFNβ release from THP1 by STING activation (hIFNβ ELISA); conditions: THP1 cells, 24 h, IFN-β in supernatant; inactive = IFNβ not detected at the maximum concentration of compounds
T3 construct: THP1 was purchased from National Collection of Authenticated Cell Cultures (Cat #TCHu 57); host or cells: THP1
T3 sequence (Q86WV6 whole entry R71H/G230A/H232R/R293Q): as the sequence (Q86WV6 whole entry R71H/G230A/R293Q) above, with H232R counted along it
Method in brief: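 THP1 cells from log-phase culture, suspended at 2×10^6 cells/ml, were treated with an 8-point, 3-fold compound series (0.2% DMSO final) for 24 h at 37°C, 5% CO2. Secreted IFN-β in supernatant was quantified by human IFNβ ELISA, and EC50 was obtained by curve fitting.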

Row | SMILES | Fold change related to DMSO control, WT (STING variants (WT)) | Fold change related to DMSO control, HAQ (STING variants (HAQ)) | EC50 (STING) | hIFNβ ELISA (EC50, μM) (STING)
1 | CCn1nc(C)cc1C(=O)Nc1nc2cc(C(N)=O)cc3c2n1CC(F)(F)CO3 [Example 53, 1-(1-Ethyl-3-methyl-1H-pyrazole-5-carboxamido)-8,8-difluoro-8,9-dihydro-7H-6-oxa-2,9a-diazabenzo[cd]azulene-4-carboxamide] | 1.53 fold | 2.42 fold | > 22.7 µM | –
2 | CCn1nc(C)c(F)c1C(=O)Nc1nc2cc(C(N)=O)cc3c2n1[C@@H](C(C)C)CO3 [Example 54, (S)-2-(1-Ethyl-4-fluoro-3-methyl-1H-pyrazole-5-carboxamido)-3-isopropyl-3,4-dihydro-5-oxa-1,2a-diazaacenaphthylene-7-carboxamide] | 2.29 fold | 7.79 fold | > 16.7 µM | –
3 | CCn1nc(C)c(Cl)c1C(=O)Nc1nc2cc(C(N)=O)cc3c2n1[C@@H](C(C)C)CO3 [Example 55, (S)-2-(4-chloro-1-ethyl-3-methyl-1H-pyrazole-5-carboxamido)-3-isopropyl-3,4-dihydro-5-oxa-1,2a-diazaacenaphthylene-7-carboxamide] | 1.38 fold | 2.96 fold | – | inactive
4 | CCn1nc(C)c(Br)c1C(=O)Nc1nc2cc(C(N)=O)cc3c2n1[C@@H](C(C)C)CO3 [Example 56, (S)-2-(4-Bromo-1-ethyl-3-methyl-1H-pyrazole-5-carboxamido)-3-isopropyl-3,4-dihydro-5-oxa-1,2a-diazaacenaphthylene-7-carboxamide] | 1.16 fold | 1.17 fold | – | inactive
5 | CCn1nc(C)cc1C(=O)Nc1nc2cc(C(N)=O)cc3c2n1CCCO3 [Example 57, 1-(1-Ethyl-3-methyl-1H-pyrazole-5-carboxamido)-8,9-dihydro-7H-6-oxa-2,9a-diazabenzo[cd]azulene-4-carboxamide] | 1.34 fold | 3.59 fold | – | inactive
6 | CCn1nc(C)cc1C(=O)Nc1nc2cc(C(N)=O)cc3c2n1[C@@H](CO)CO3 [Example 58, (S)-2-(1-ethyl-3-methyl-1H-pyrazole-5-carboxamido)-3-(hydroxymethyl)-3,4-dihydro-5-oxa-1,2a-diazaacenaphthylene-7-carboxamide] | 1.06 fold | 0.95 fold | > 50 µM | –
7 | CCn1nc(C)cc1C(=O)Nc1nc2cc(C(N)=O)cc3c2n1CC1(COC1)CO3 [Example 59, 1-(1-Ethyl-3-methyl-1H-pyrazole-5-carboxamido)-7H,9H-6-oxa-2,9a-diazaspiro[benzo[cd]azulene-8,3′-oxetan]-1,2a,2a^1(5a),4-tetraene-4-carboxamide] | 1.22 fold | 1.13 fold | > 21.6 µM | –
8 | CCn1nc(C)cc1C(=O)Nc1nc2cc(C(N)=O)cc3c2n1CCCN3C [Example 60, 1-(1-ethyl-3-methyl-1H-pyrazole-5-carboxamido)-6-methyl-6,7,8,9-tetrahydro-2,6,9a-triaza benzo[cd]azulene-4-carboxamide] | 6.55 fold | 73.46 fold | 15.8 µM | –
9 | CCn1nc(C)cc1C(=O)Nc1nc2cc(C(N)=O)cc3c2n1CC1(CC1)CO3 [Example 61, 1-(1-ethyl-3-methyl-1H-pyrazole-5-carboxamido)-7H,9H-6-oxa-2,9a-diazaspiro[benzo[cd]azulene-8,1′-cyclopropan]-1,2a,3,5-tetraene-4-carboxamide] | 1.90 fold | 8.67 fold | > 16.7 µM | –
10 | CCn1nc(C)cc1C(=O)Nc1nc2cc(C(N)=O)cc3c2n1[C@@H](C)CCO3 [Example 62, (S)-1-(1-ethyl-3-methyl-1H-pyrazole-5-carboxamido)-9-methyl-8,9-dihydro-7H-6-oxa-2,9a-diazabenzo[cd]azulene-4-carboxamide] | 1.84 fold | 13.40 fold | > 27.2 µM | –
11 | CCn1nc(C)c(F)c1C(=O)Nc1nc2cc(C(N)=O)cc3c2n1[C@@H](C)CCO3 [Example 63, (S)-1-(1-ethyl-4-fluoro-3-methyl-1H-pyrazole-5-carboxamido)-9-methyl-8,9-dihydro-7H-6-oxa-2,9a-diazabenzo[cd]azulene-4-carboxamide] | 2.10 fold | 15.19 fold | > 16.7 µM | –
12 | CCn1nc(C)c(F)c1C(=O)Nc1nc2cc(C(N)=O)cc3c2n1CC1(CC1)CO3 [Example 64, 1-(1-ethyl-4-fluoro-3-methyl-1H-pyrazole-5-carboxamido)-7,9-dihydrospiro[6-oxa-2,9a-diazabenzo[cd]azulene-8,1′-cyclopropane]-4-carboxamide] | 1.53 fold | 5.84 fold | > 12.8 µM | –
13 | CCn1nc(C)c(F)c1C(=O)Nc1nc2cc(C(N)=O)cc3c2n1CCCO3 [Example 65, 1-(1-ethyl-4-fluoro-3-methyl-1H-pyrazole-5-carboxamido)-8,9-dihydro-7H-6-oxa-2,9a-diazabenzo[cd]azulene-4-carboxamide] | 1.63 fold | 8.89 fold | > 11.6 µM | –
14 | CCn1nc(C)c(F)c1C(=O)Nc1nc2cc(C(N)=O)cc3c2n1CCCN3C [Example 66, 1-(1-Ethyl-4-fluoro-3-methyl-1H-pyrazole-5-carboxamido)-6-methyl-6,7,8,9-tetrahydro-2,6,9a-triazabenzo[cd]azulene-4-carboxamide] | 7.15 fold | 71.56 fold | 2.8 µM | –
15 | CCn1nc(C)cc1C(=O)Nc1nc2cc(C(N)=O)cc3c2n1CC(C)(C)CN3 [Example 67, 1-(1-Ethyl-3-methyl-1H-pyrazole-5-carboxamido)-8,8-dimethyl-6,7,8,9-tetrahydro-2,6,9a-tri azabenzo[cd]azulene-4-carboxamide] | 7.90 fold | 49.72 fold | 14.9 µM | –
16 | CCn1nc(C)cc1C(=O)Nc1nc2cc(C(N)=O)cc3c2n1CC(C)(C)CN3C [Example 68, 1-(1-Ethyl-3-methyl-1H-pyrazole-5-carboxamido)-6,8,8-trimethyl-6,7,8,9-tetrahydro-2,6,9a-triazabenzo[cd]azulene-4-carboxamide] | 9.81 fold | 67.23 fold | 4.7 µM | –
17 | CCN1CC(C)(C)Cn2c(NC(=O)c3cc(C)nn3CC)nc3cc(C(N)=O)cc1c32 [Example 69, 6-Ethyl-1-(1-ethyl-3-methyl-1H-pyrazole-5-carboxamido)-8,8-dimethyl-6,7,8,9-tetrahydro-2,6,9a-triazabenzo[cd]azulene-4-carboxamide] | 7.69 fold | 74.83 fold | 7.6 µM | –
18 | CCn1nc(C)cc1C(=O)Nc1nc2cc(C(N)=O)cc3c2n1C[C@@H](C)CO3 [Example 70, (R)-1-(1-Ethyl-3-methyl-1H-pyrazole-5-carboxamido)-8-methyl-8,9-dihydro-7H-6-oxa-2,9a-diazabenzo[cd]azulene-4-carboxamide] | 2.37 fold | 10.57 fold | > 50 µM | –
19 | CCn1nc(C)cc1C(=O)Nc1nc2cc(C(N)=O)cc3c2n1C[C@H](C)CO3 [Example 71, (S)-1-(1-Ethyl-3-methyl-1H-pyrazole-5-carboxamido)-8-methyl-8,9-dihydro-7H-6-oxa-2,9a-diazabenzo[cd]azulene-4-carboxamide] | 2.97 fold | 18.10 fold | > 17.6 µM | –
20 | CCn1nc(C)c(F)c1C(=O)Nc1nc2cc(C(N)=O)cc3c2n1CC1(COC1)CO3 [Example 72, 1-(1-Ethyl-4-fluoro-3-methyl-1H-pyrazole-5-carboxamido)-7H,9H-6-oxa-2,9a-diazaspiro[benzo[cd]azulene-8,3′-oxetan]-1,2a,2a^1(5a),4-tetraene-4-carboxamide] | 1.24 fold | 3.27 fold | > 38.5 µM | –
